The text below walks through data of patent publication US9062041B2 (Bayer Intellectual Property GmbH, priority 2011, dated 2015).

SMILES strings stand for the structures.

Format in all cases: cell-based
Assay [1] addresses T1, human PGD receptor (Homo sapiens, UniProt Q13258).
T1 sequence (Q13258 1-359): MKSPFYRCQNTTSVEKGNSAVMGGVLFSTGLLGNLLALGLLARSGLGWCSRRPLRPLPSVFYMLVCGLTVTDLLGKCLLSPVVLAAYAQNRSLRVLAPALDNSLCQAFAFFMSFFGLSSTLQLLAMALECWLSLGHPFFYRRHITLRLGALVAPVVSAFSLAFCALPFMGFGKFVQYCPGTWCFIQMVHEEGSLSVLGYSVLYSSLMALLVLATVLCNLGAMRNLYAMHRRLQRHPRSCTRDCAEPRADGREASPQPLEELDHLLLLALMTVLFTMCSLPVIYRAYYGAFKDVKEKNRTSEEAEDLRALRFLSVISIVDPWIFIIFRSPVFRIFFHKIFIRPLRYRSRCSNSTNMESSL
Description: cAMP antagonism test on the human prostaglandin D receptor (HTRF cAMP detection). To be noted: selectivity towards hDP, IC50 measured by cAMP antagonism test. Summed up: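 HTRF competition read-out (665/620 nm ratio ×10000), where higher FRET means less cAMP, i.e. antagonism. Compounds (0.8 nM–16.5 μM) were preincubated 20 min at RT with cells and cAMP-d2, PGD2 (3× solution, 6 nM) in IBMX-containing PBS added for 30 min at RT, then cells lysed 20 min.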

Assay [2] deals with EP4 subtype of the human PGE2 receptor (Homo sapiens, UniProt P35408). Description: cAMP antagonism test on the human EP4 receptor (HTRF cAMP detection). To be noted: selectivity towards hEP4, IC50 measured by cAMP antagonism test. In a few lines: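 Competitive HTRF cAMP read-out (cAMP-d2 vs Eu-cryptate anti-cAMP antibody, 665/620 nm ratio) on lysed human EP4 cells. Compound (0.8 nM–16.5 μM) applied 20 min at RT before 60 min PGE2 challenge (3× solution 0.3 nM, IBMX present); 20 min lysis precedes reading.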
Sequence of EP4 subtype of the human PGE2 receptor (P35408 whole entry): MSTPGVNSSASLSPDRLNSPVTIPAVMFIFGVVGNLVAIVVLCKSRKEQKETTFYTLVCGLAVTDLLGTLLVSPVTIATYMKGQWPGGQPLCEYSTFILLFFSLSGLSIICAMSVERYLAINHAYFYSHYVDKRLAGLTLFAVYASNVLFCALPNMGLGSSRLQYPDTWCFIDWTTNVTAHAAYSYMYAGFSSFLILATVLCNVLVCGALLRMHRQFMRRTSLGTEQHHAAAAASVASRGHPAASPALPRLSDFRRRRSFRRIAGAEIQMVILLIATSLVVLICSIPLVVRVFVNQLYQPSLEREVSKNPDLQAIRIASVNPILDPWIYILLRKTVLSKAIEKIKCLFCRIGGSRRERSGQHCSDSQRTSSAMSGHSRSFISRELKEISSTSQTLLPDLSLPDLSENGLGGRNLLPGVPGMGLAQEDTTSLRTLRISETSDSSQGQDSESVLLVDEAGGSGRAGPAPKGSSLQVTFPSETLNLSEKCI

In assay [3] the target is EP2 subtype of the human PGE2 receptor (Homo sapiens, UniProt P43116). Description: cAMP antagonism test on the human EP2 receptor (HTRF cAMP detection). To be noted: hEP2 receptor, read-out: Antagonism hEP2 IC50. In a few lines: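 Read-out is a competitive HTRF for cAMP: lysate cAMP displaces cAMP-d2 from Eu cryptate-labelled antibody, and antagonism raises the 665/620 nm ratio. Compound (0.8 nM–16.5 μM) added to EP2 cells 20 min at RT before 60 min PGE2 challenge (3× stock 1.5 nM) with IBMX, followed by 20 min lysis.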
Sequence of EP2 subtype of the human PGE2 receptor (P43116 whole entry): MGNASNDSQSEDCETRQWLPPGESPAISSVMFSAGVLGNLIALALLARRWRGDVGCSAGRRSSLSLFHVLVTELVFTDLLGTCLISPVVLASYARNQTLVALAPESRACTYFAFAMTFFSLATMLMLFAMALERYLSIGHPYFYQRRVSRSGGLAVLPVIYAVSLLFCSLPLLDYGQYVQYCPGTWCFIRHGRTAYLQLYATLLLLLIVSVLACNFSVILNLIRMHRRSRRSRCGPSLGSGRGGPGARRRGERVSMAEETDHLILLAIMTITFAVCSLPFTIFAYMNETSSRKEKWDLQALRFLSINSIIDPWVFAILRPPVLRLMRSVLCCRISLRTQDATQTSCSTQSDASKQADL

In the case of `COCCNC(=O)c1ccc2nn(CC3CCN(C(=O)c4ncc(-c5ccccc5)o4)CC3)cc2c1C` [Example 354, N-(2-methoxyethyl)-4-methyl-2-({1-[(5-phenyloxazol-2-yl)carbonyl]piperidin-4-yl}methyl)-2H-indazol-5-carboxamide], the “Selectivity hEP2/hDP” value in assay [1] is given as “xxx (xxx > 100)”. Further, in assay [2], the “Selectivity hEP2/hEP4” value is listed as “xxx (xxx > 100)”. Moreover, the IC50 in assay [3] is 5.87 nM.

For `O=C(NCCOCC1CC1)c1ccc2nn(CC3CCN(C(=O)c4ccc(Cl)cc4)CC3)cc2c1OCC(F)(F)F` [Example 235, 2-{[1-(4-chlorobenzoyl)piperidin-4-yl]methyl}-N-[2-(cyclopropylmethoxy)-ethyl]-4-(2,2,2-trifluoroethoxy)-2H-indazol-5-carboxamide], in assay [1], the “Selectivity hEP2/hDP” value is reported as “xxx (xxx > 100)”. In assay [2], the “Selectivity hEP2/hEP4” value is reported as “xxx (xxx > 100)”. In addition, the IC50 in assay [3] came out at 16.7 nM.

Regarding `Cc1c(C(=O)NCC(F)(F)F)ccc2nn(CC3CCN(C(=O)c4ccc(S(F)(F)(F)(F)F)cc4)CC3)cc12` [Example 71, 4-methyl-2-({1-[4-(pentafluoro-λ^6-sulphanyl)benzoyl]piperidin-4-yl}methyl)-N-(2,2,2-trifluoroethyl)-2H-indazol-5-carboxamide], the “Selectivity hEP2/hDP” value in assay [1] is reported as “xxx (xxx > 100)”. Besides, in assay [2], the “Selectivity hEP2/hEP4” value is listed as “xxx (xxx > 100)”. Besides, in assay [3], the IC50 was 82.9 nM.

Take `COCCNC(=O)c1ccc2nn(CC3CCN(C(=O)c4ccc(Cl)cc4F)CC3)cc2c1OC` [Example 271, 2-{[1-(4-chloro-2-fluorobenzoyl)piperidin-4-yl]methyl}-4-methoxy-N-(2-methoxyethyl)-2H-indazol-5-carboxamide]: the “Selectivity hEP2/hDP” value in assay [1] is on record as “xxx (xxx > 100)”. Further, the “Selectivity hEP2/hEP4” value in assay [2] is on record as “xxx (xxx > 100)”. In assay [3], the IC50 was determined as 33.5 nM.

As for `COCCNC(=O)c1ccc2nn(CC3CCN(C(=O)c4ccc(N5CCCC5)cc4F)CC3)cc2c1C` [Example 41, 2-({1-[2-fluoro-4-(pyrrolidin-1-yl)-benzoyl]piperidin-4-yl}methyl)-N-(2-methoxyethyl)-4-methyl-2H-indazol-5-carboxamide], the “Selectivity hEP2/hDP” value in assay [1] is given as “xxx (xxx > 100)”. Besides, the “Selectivity hEP2/hEP4” value in assay [2] is on record as “xxx (xxx > 100)”. In addition, the IC50 in assay [3] was determined as 5.62 nM.

`COCCNC(=O)c1ccc2nn(CC3CCN(C(=O)c4ccc(Oc5ccc(F)c(F)c5)cc4)CC3)cc2c1C` [Example 359, 2-({1-[4-(3,4-difluorophenoxy)benzoyl]piperidin-4-yl}methyl)-N-(2-methoxy-ethyl)-4-methyl-2H-indazol-5-carboxamide]: the “Selectivity hEP2/hDP” value in assay [1] was “xxx (xxx > 100)”. Besides, in assay [2], the “Selectivity hEP2/hEP4” value is reported as “xxx (xxx > 100)”. Also, the IC50 in assay [3] worked out at 6.99 nM.

Turning to `COCCNC(=O)c1ccc2nn(CC3CCN(C(=O)c4ccc(-c5ccncc5)c(C)c4)CC3)cc2c1C` [Example 393, N-(2-methoxyethyl)-4-methyl-2-({1-[3-methyl-4-(4-pyridyl)benzoyl]piperidin-4-yl}methyl)-2H-indazol-5-carboxamide], the “Selectivity hEP2/hDP” value in assay [1] is on record as “xxx (xxx > 100)”. Moreover, in assay [2], the “Selectivity hEP2/hEP4” value is recorded as “xxx (xxx > 100)”. In addition, the half-inhibitory concentration (IC50) in assay [3] came out at 50 nM.

In the case of `COCCNC(=O)c1cc2cn(CC3CCN(C(=O)c4ccc(C(F)(F)F)cc4)CC3)nc2cc1C` [Example 211, N-(2-methoxyethyl)-6-methyl-2-({1-[4-(trifluoromethyl)benzoyl]piperidin-4-yl}-methyl)-2H-indazol-5-carboxamide], the “Selectivity hEP2/hDP” value in assay [1] is reported as “xxx (xxx > 100)”. Moreover, the “Selectivity hEP2/hEP4” value in assay [2] is “xxx (xxx > 100)”. The IC50 in assay [3] was 50.1 nM.

With `Cc1c(C(=O)NCC2CCCCO2)ccc2nn(CC3CN(C(=O)c4ccc(Cl)cc4)C3)cc12` (single isomer, unassigned) [Example 145, (R or S)-2-{[1-(4-chlorobenzoyl)azetidin-3-yl]methyl}-4-methyl-N-(3,4,5,6-tetrahydro-2H-pyran-2-ylmethyl)-2H-indazol-5-carboxamide], the “Selectivity hEP2/hDP” value in assay [1] is on record as “xxx (xxx > 100)”. In addition, the “Selectivity hEP2/hEP4” value in assay [2] was “xxx (xxx > 100)”. Also, the IC50 in assay [3] stood at 18.8 nM.

For the compound `Cc1c(C(=O)NCC(F)(F)F)ccc2nn(CC3CN(C(=O)c4ccc(Oc5ccc(C(F)(F)F)cn5)cc4)C3)cc12` [Example 177, 4-methyl-N-(2,2,2-trifluoroethyl)-2-{[1-(4-{[5-(trifluoromethyl)pyridin-2-yl]oxy}benzoyl)azetidin-3-yl]methyl}-2H-indazol-5-carboxamide], the “Selectivity hEP2/hDP” value in assay [1] was “xxx (xxx > 100)”. Also, in assay [2], the “Selectivity hEP2/hEP4” value was “xxx (xxx > 100)”. In assay [3], the concentration for half-maximal inhibition (IC50) was determined as 118 nM.

For the compound `COCCNC(=O)c1ccc2nn(CC3CCN(C(=O)c4ccc(-c5ccc(C#N)cc5C)cc4)CC3)cc2c1C` [Example 367, 2-({1-[(4′-cyano-2′-methylbiphenyl-4-yl)carbonyl]piperidin-4-yl}methyl)-N-(2-methoxyethyl)-4-methyl-2H-indazol-5-carboxamide], in assay [1], the “Selectivity hEP2/hDP” value is listed as “xxx (xxx > 100)”. In addition, the “Selectivity hEP2/hEP4” value in assay [2] is given as “xxx (xxx > 100)”. Also, the IC50 in assay [3] came out at 5.84 nM.

For `Cc1c(C(=O)NCC(F)(F)F)ccc2nn(CC3CCN(C(=O)c4cc5cc(Cl)ccc5n4C)CC3)cc12` [Example 294, 2-({1-[(5-chloro-1-methyl-1H-indol-2-yl)carbonyl]piperidin-4-yl}methyl)-4-methyl-N-(2,2,2-trifluoroethyl)-2H-indazol-5-carboxamide], in assay [1], the “Selectivity hEP2/hDP” value is reported as “xxx (xxx > 100)”. Also, the “Selectivity hEP2/hEP4” value in assay [2] was “xxx (xxx > 100)”. In assay [3], the IC50 turned out to be 13.2 nM.

On to `Cc1cc2nn(CC3CN(C(=O)c4ccc(OC(F)(F)F)cc4)C3)cc2cc1C(=O)NCCSC(F)(F)F` [Example 194, 6-methyl-2-({1-[4-(trifluoromethoxy)benzoyl]azetidin-3-yl}methyl)-N-{2-[(trifluoromethyl)sulphanyl]ethyl}-2H-indazol-5-carboxamide], for which, in assay [1], the “Selectivity hEP2/hDP” value was “xxx (xxx > 100)”. Also, in assay [2], the “Selectivity hEP2/hEP4” value is “xxx (xxx > 100)”. In addition, the IC50 in assay [3] came out at 40.9 nM.

Consider `COCCNC(=O)c1ccc2nn(CC3CCN(C(=O)c4ccc(-c5ccc(F)cc5)cc4)CC3)cc2c1OC(F)F` [Example 227, 4-(difluoromethoxy)-2-({1-[(4′-fluorobiphenyl-4-yl)carbonyl]piperidin-4-yl}methyl)-N-(2-methoxyethyl)-2H-indazol-5-carboxamide], for which, in assay [1], the “Selectivity hEP2/hDP” value is “xxx (xxx > 100)”. Besides, in assay [2], the “Selectivity hEP2/hEP4” value is listed as “xxx (xxx > 100)”. The IC50 in assay [3] was determined as 9.89 nM.

As to `Cc1c(C(=O)NCCCO)ccc2nn(CC3CCN(C(=O)c4ccc(Cl)cc4)CC3)cc12` [Example 253, 2-{[1-(4-chlorobenzoyl)piperidin-4-yl]methyl}-N-(3-hydroxypropyl)-4-methyl-2H-indazol-5-carboxamide], the “Selectivity hEP2/hDP” value in assay [1] is “xx (xx: 10-100)”. Also, the “Selectivity hEP2/hEP4” value in assay [2] was “xx (xx: 10-100)”. Further, in assay [3], the IC50 was found to be 168 nM.

For the compound `Cc1c(C(=O)NCC(F)(F)F)ccc2nn(CC3CCN(C(=O)c4ccc(-c5cccc(C(F)(F)F)n5)cc4)CC3)cc12` [Example 329, 4-methyl-N-(2,2,2-trifluoroethyl)-2-[(1-{4-[6-(trifluoromethyl)pyridin-2-yl]-benzoyl}piperidin-4-yl)methyl]-2H-indazol-5-carboxamide], the “Selectivity hEP2/hDP” value in assay [1] is recorded as “xx (xx: 10-100)”. Besides, the “Selectivity hEP2/hEP4” value in assay [2] is recorded as “xx (xx: 10-100)”. Further, the IC50 in assay [3] stood at 232 nM.

In the case of `COc1ccc(-c2ccc(C(=O)N3CCC(Cn4cc5c(C)c(C(=O)NCC(F)(F)F)ccc5n4)CC3)cc2)nc1` [Example 326, 2-({1-[4-(5-methoxypyridin-2-yl)benzoyl]piperidin-4-yl}methyl)-4-methyl-N-(2,2,2-trifluoroethyl)-2H-indazol-5-carboxamide], the “Selectivity hEP2/hDP” value in assay [1] is “xx (xx: 10-100)”. In addition, the “Selectivity hEP2/hEP4” value in assay [2] was “xx (xx: 10-100)”. Also, the IC50 in assay [3] is 485 nM.

Take `COCCNC(=O)c1ccc2nn(CC3CCN(C(=O)c4ccc(Br)cc4)CC3)cc2c1C` [Example 54, 2-{[1-(4-bromo-benzoyl)piperidin-4-yl]methyl}-N-(2-methoxyethyl)-4-methyl-2H-indazol-5-carboxamide]: in assay [1], the “Selectivity hEP2/hDP” value was “xxx (xxx > 100)”. Moreover, in assay [2], the “Selectivity hEP2/hEP4” value is listed as “xxx (xxx > 100)”. Moreover, the IC50 in assay [3] was 4.74 nM.

With `COCCNC(=O)c1ccc2nn(CC3CCN(C(=O)c4cccc(Cl)c4)CC3)cc2c1C` [Example 28, 2-{[1-(3-chloro-benzoyl)piperidin-4-yl]methyl}-N-(2-methoxyethyl)-4-methyl-2H-indazol-5-carboxamide], the “Selectivity hEP2/hDP” value in assay [1] was “xxx (xxx > 100)”. In assay [2], the “Selectivity hEP2/hEP4” value is recorded as “xxx (xxx > 100)”. Besides, the IC50 in assay [3] was found to be 33.9 nM.
